Each molecule was assayed against BTK (Homo sapiens, UniProt Q06187) (assay: biochemical). Settings: read-out: BTK inhibition (%).
Chain of BTK (Q06187 402-655 limits assumed): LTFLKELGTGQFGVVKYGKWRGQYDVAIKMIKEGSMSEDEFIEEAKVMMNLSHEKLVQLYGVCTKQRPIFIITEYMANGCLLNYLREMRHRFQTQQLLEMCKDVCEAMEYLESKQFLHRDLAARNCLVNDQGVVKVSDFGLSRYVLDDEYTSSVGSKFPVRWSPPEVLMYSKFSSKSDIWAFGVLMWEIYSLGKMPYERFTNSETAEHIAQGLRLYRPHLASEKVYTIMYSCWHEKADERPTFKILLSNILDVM

**Q.** How did the inhibition at 10 µM turn out when CO[C@H]1C[C@H](O[C@H]2CC[C@]3(C)[C@H]4CC[C@]5(C)[C@@H](C6=CC(=O)OC6)CC[C@]5(O)[C@@H]4CC[C@]3(O)C2)O[C@H](C)[C@H]1O[C@@H]1O[C@H](CO)[C@@H](O)[C@H](O)[C@H]1O [PCM-0216449] was run?
**A.** 11.6%

Same assay, conditions: read-out: BTK inhibition (%), 0.75 uM BTK, […] probe 3l, 15 min preincubation

**Q.** O=C(O)CCCCCCCC(O)C(O)CCCCCCO (stereo not drawn) [PCM-0215978] was tested. Which inhibition at 10 µM did it give?
**A.** -13.1%

**Q.** How did the inhibition at 10 µM turn out when CC(C)CCC[C@@H](C)[C@H]1CC[C@H]2[C@@H]3CC[C@H]4C[C@@H](O)CC[C@]4(C)[C@H]3CC[C@]12C [PCM-0216033] was run?
**A.** -9.4%

**Q.** How did the inhibition at 10 µM turn out when COc1cc(OC2CCN(C)CC2)ccc1Nc1ncc2c(n1)n(C1CCCC1)c(=O)n2C [PCM-0095460] was run?
**A.** -15.2%

**Q.** O=c1[nH]c(=O)n([C@H]2C[C@H](O)[C@@H](CO)O2)cc1I [PCM-0085786] was tested. Which inhibition at 10 µM did it give?
**A.** -27.2%

**Q.** Which inhibition at 10 µM does the source give for CC(C)C[C@H](CC(=O)NO)C(=O)N[C@@H](Cc1ccc2ccccc2c1)C(=O)N[C@@H](C)C(=O)NCCN [PCM-0215328] here?
**A.** 18.6%

**Q.** For CCn1nc(C2CCN(C(=O)CCO)CC2)nc1-c1cnc(N)c(-c2nnc(C(C)(C)C)o2)n1 [PCM-0215697], which inhibition at 10 µM is on record?
**A.** 9.7%

**Q.** Which inhibition at 10 µM does the source give for COc1cccc2c1C(=O)c1c(O)c3c(c(O)c1C2=O)C[C@@](O)(C(=O)CO)C[C@@H]3O[C@H]1C[C@H](N)[C@H](O[C@@H]2CCCCO2)[C@H](C)O1 [PCM-0214749] here?
**A.** 53.7%

**Q.** For COc1cc2oc(-c3ccccc3)cc(=O)c2c(OC)c1OC [PCM-0216616], which inhibition at 10 µM is on record?
**A.** -34%

**Q.** How did the inhibition at 10 µM turn out when O=C(O)CCCc1ccccc1 [PCM-0095550] was run?
**A.** -12.4%

**Q.** How did the inhibition at 10 µM turn out when OCCOCCN1CCN(C2=Nc3ccccc3Sc3ccccc32)CC1 [PCM-0086113] was run?
**A.** -4.7%

**Q.** How did the inhibition at 10 µM turn out when O=C(CBr)c1ccc(O)cc1 [PCM-0214871] was run?
**A.** -28.8%

**Q.** COc1ccc(C(=O)C(=O)c2ccc(OC)cc2)cc1 [PCM-0216078] was tested. Which inhibition at 10 µM did it give?
**A.** 24.7%

**Q.** With O=C(Nc1ccccc1-c1cn2c(CN3CC[C@@H](O)C3)csc2n1)c1ccc2ccccc2c1 [PCM-0215757] as the molecule, how does the inhibition at 10 µM read?
**A.** -1.5%

**Q.** How did the inhibition at 10 µM turn out when CN1[C@@H]2CC(O)C[C@H]1[C@@H]1O[C@@H]12 (stereo partly drawn) [PCM-0095322] was run?
**A.** -2.3%

**Q.** Which inhibition at 10 µM does the source give for O=c1[nH]cnc2c1ncn2[C@H]1C[C@H](O)[C@@H](CO)O1 [PCM-0214983] here?
**A.** 0%

**Q.** Which inhibition at 10 µM does the source give for NC(CO)C(=O)NNCc1ccc(O)c(O)c1O (stereo not drawn) [PCM-0064697] here?
**A.** -14%

**Q.** How did the inhibition at 10 µM turn out when COc1c2c(cc3oc(CO[C@@H]4O[C@H](CO)[C@@H](O)[C@H](O)[C@H]4O)cc(=O)c13)O[C@H](C(C)(C)O)C2 [PCM-0216346] was run?
**A.** 7.7%

**Q.** Which inhibition at 10 µM does the source give for CCCCCCCCCCCCCCCCCC[N+](C)(C)C [PCM-0216157] here?
**A.** -27%

**Q.** With C[n+]1ccccc1/C=N/O [PCM-0086551] as the molecule, how does the inhibition at 10 µM read?
**A.** -18.5%

**Q.** Which inhibition at 10 µM does the source give for O=C1CC[C@@]2(O)[C@H]3Cc4ccc(O)c5c4[C@@]2(CCN3CC2CC2)[C@H]1O5 [PCM-0085829] here?
**A.** -24.1%

**Q.** With C[C@]12CC[C@@H]3c4ccc(OC(=O)c5ccccc5)cc4CC[C@H]3[C@@H]1CC[C@@H]2O [PCM-0095636] as the molecule, how does the inhibition at 10 µM read?
**A.** -7.8%

**Q.** How did the inhibition at 10 µM turn out when COc1ccc2[nH]cc(CCNC(C)=O)c2c1 [PCM-0065583] was run?
**A.** 11.7%

**Q.** For N=C(N=C(N)N)N1CCOCC1 [PCM-0085762], which inhibition at 10 µM is on record?
**A.** -3.1%

**Q.** For O=C1CN(/N=C/C=C/c2ccc([N+](=O)[O-])o2)C(=O)N1 [PCM-0214924], which inhibition at 10 µM is on record?
**A.** -7.8%

**Q.** With Cc1ccc([N+](=O)[O-])cc1S(=O)(=O)N(C)/N=C/c1cnc2ccc(Br)cn12 [PCM-0094904] as the molecule, how does the inhibition at 10 µM read?
**A.** 13.6%

**Q.** For Nc1ncnc2c1nc(Br)n2[C@@H]1O[C@@H]2COP(=O)(O)O[C@H]2[C@H]1O [PCM-0215506], which inhibition at 10 µM is on record?
**A.** 1.5%

**Q.** How did the inhibition at 10 µM turn out when NC(=O)/C(=C/n1cnc(-c2cc(C(F)(F)F)cc(C(F)(F)F)c2)n1)c1cncnc1 [PCM-0215821] was run?
**A.** -10%

**Q.** CC1(C)[C@@H](OC(=O)CCC(=O)O)CC[C@]2(C)[C@H]3C(=O)C=C4[C@@H]5C[C@@](C)(C(=O)O)CC[C@]5(C)CC[C@@]4(C)[C@]3(C)CC[C@@H]12 [PCM-0215252] was tested. Which inhibition at 10 µM did it give?
**A.** 26.5%

**Q.** With CCCC(=O)NCCc1csc(-c2ccc(Cl)cc2)n1 [PCM-0215869] as the molecule, how does the inhibition at 10 µM read?
**A.** 2.3%

**Q.** With COc1cccc2c1c(O)c(C(=O)N(C)c1ccc(C(F)(F)F)cc1)c(=O)n2C [PCM-0215368] as the molecule, how does the inhibition at 10 µM read?
**A.** -27.8%

**Q.** How did the inhibition at 10 µM turn out when COc1ccnc(C[S+]([O-])c2nc3ccc(-n4cccc4)cc3[nH]2)c1C (stereo not drawn) [PCM-0214937] was run?
**A.** 25.7%

**Q.** How did the inhibition at 10 µM turn out when CCCCCCCCCCCCOC(=O)CS(=O)(=O)O [PCM-0215935] was run?
**A.** -12.8%

**Q.** How did the inhibition at 10 µM turn out when Cc1ccc(Nc2ncc3c(n2)N(C)C(=O)N(c2cc(NC(=O)c4cccc(C(F)(F)F)c4)ccc2C)C3)cn1 [PCM-0215589] was run?
**A.** 36.6%

**Q.** With COc1cc2c(cc1OC)CN(C(=O)/C=C/c1c(-c3ccccc3)n(C)c3ncccc13)CC2 [PCM-0215686] as the molecule, how does the inhibition at 10 µM read?
**A.** 37.8%

**Q.** For C[C@@H]1CC[C@]2(C(=O)O)CC[C@]3(C)C(=CC[C@@H]4[C@@]5(C)CC[C@H](O[C@@H]6OC[C@H](O)[C@H](O)[C@H]6O)C(C)(C)[C@@H]5CC[C@]43C)[C@@H]2[C@]1(C)O [PCM-0216436], which inhibition at 10 µM is on record?
**A.** 14.7%

**Q.** CO[C@H]1C[C@@H]2CC[C@@H](C)[C@@](O)(O2)C(=O)C(=O)N2CCCC[C@H]2C(=O)O[C@H]([C@H](C)C[C@@H]2CC[C@H](n3cnnn3)[C@H](OC)C2)CC(=O)[C@H](C)/C=C(\C)[C@@H](O)[C@@H](OC)C(=O)[C@H](C)C[C@H](C)/C=C/C=C/C=C/1C [PCM-0215342] was tested. Which inhibition at 10 µM did it give?
**A.** 3.4%

**Q.** With Nc1ccc(Oc2ccc(-c3ccc(Oc4ccc(N)cc4)cc3)cc2)cc1 [PCM-0216586] as the molecule, how does the inhibition at 10 µM read?
**A.** -7.7%

**Q.** With COc1cc2c(cc1OC)-c1c(C)c3ccc(OC)c(OC)c3c[n+]1CC2 [PCM-0216326] as the molecule, how does the inhibition at 10 µM read?
**A.** 0%

**Q.** Which inhibition at 10 µM does the source give for O=C(Nc1cnn2ccc(N3CCC[C@@H]3c3cc(F)ccc3F)nc12)N1CC[C@H](O)C1 [PCM-0215701] here?
**A.** -9%

**Q.** With O=C[C@H](O)[C@@H](O)[C@H](O)[C@H](O)COP(=O)(O)O [PCM-0216185] as the molecule, how does the inhibition at 10 µM read?
**A.** 13.6%

**Q.** COc1nc(N)nc2c1ncn2[C@@H]1O[C@H](CO)[C@@H](O)[C@@H]1O [PCM-0094930] was tested. Which inhibition at 10 µM did it give?
**A.** -3.1%

**Q.** For CC#Cc1cncc(-c2ccc3c(c2)[C@@]2(N=C(C)C(N)=N2)C2(CCC(OC)CC2)C3)c1 (stereo partly drawn) [PCM-0215755], which inhibition at 10 µM is on record?
**A.** 0%

**Q.** For Cc1nc2c(O)cccc2c(=O)[nH]1 [PCM-0215466], which inhibition at 10 µM is on record?
**A.** -10.8%

**Q.** With COc1nc(C)cnc1NS(=O)(=O)c1cccnc1-c1ccc(-c2nnco2)cc1 [PCM-0095131] as the molecule, how does the inhibition at 10 µM read?
**A.** 3.4%

**Q.** CCOCCn1c(N2CCCN(C)CC2)nc2ccccc21 [PCM-0086037] was tested. Which inhibition at 10 µM did it give?
**A.** 2.3%

**Q.** For C/C(=N\NC(=O)c1cccc(S(=O)(=O)N2CCOCC2)c1)c1cc(Cl)ccc1O [PCM-0215399], which inhibition at 10 µM is on record?
**A.** 25.5%

**Q.** Which inhibition at 10 µM does the source give for NC1=N[C@@](c2cccc(-c3cncnc3)c2)(c2ccnc(C(F)F)c2)c2cccc(F)c21 [PCM-0215490] here?
**A.** -5.4%

**Q.** With O=S(=O)(c1cccc2cnccc12)N1CCCNCC1 [PCM-0090675] as the molecule, how does the inhibition at 10 µM read?
**A.** -17.9%

**Q.** How did the inhibition at 10 µM turn out when C=C1C(=O)O[C@H]2[C@H]1CCC(C)=C1CC[C@@](C)(O)[C@@H]12 [PCM-0216540] was run?
**A.** 23.9%

**Q.** CC(C)=CCC/C(C)=C/CC/C(C)=C/CC/C=C(\C)CC/C=C(\C)CCC=C(C)C [PCM-0216030] was tested. Which inhibition at 10 µM did it give?
**A.** -9.7%

**Q.** How did the inhibition at 10 µM turn out when COc1ccc(CCCOC(Cn2ccnc2)c2ccc(OC)cc2)cc1 (stereo not drawn) [PCM-0215655] was run?
**A.** -8.5%

**Q.** For O[C@@H](CNC[C@H](O)[C@H]1CCc2cc(F)ccc2O1)[C@@H]1CCc2cc(F)ccc2O1 [PCM-0095721], which inhibition at 10 µM is on record?
**A.** -14%

**Q.** For Fc1cc(F)c2c(c1)[C@H]1C=CC[C@H]1C(c1cccnc1)N2 (stereo partly drawn) [PCM-0215243], which inhibition at 10 µM is on record?
**A.** -18.5%
